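Tested at 5 concentrations; 48 h exposure; 96-well plates; endpoints linearly interpolated, else capped at highest concentration. The concentration for 50% growth inhibition is given as GI50. TGI marks complete inhibition of growth.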
Assays:
Assay in all cases: NCI-60 cell line screen, 48 h
[1] = system: CAKI-1 renal
[2] = system: NCI-H522 lung
[3] = system: SK-MEL-5 melanoma
[4] = system: SNB-75 CNS
[5] = system: HCT-15 colon
[6] = system: OVCAR-8 ovarian
[7] = system: SK-OV-3 ovarian
[8] = system: A498 renal
[9] = system: OVCAR-3 ovarian
[10] = system: KM12 colon

O=C1CCCCC2N(C(c3ccccc3)c3ccccc3)CC[C@@]12c1ccccc1 (mixture of isomers)
TGI [1]: > 10 µM
TGI [2]: > 10 µM
TGI [3]: > 10 µM
TGI [4]: > 10 µM
TGI [5]: > 10 µM
TGI [6]: > 10 µM
TGI [7]: > 10 µM
TGI [8]: > 10 µM
TGI [9]: > 10 µM
TGI [10]: > 10 µM

O=C1NN(C2=NNC3(C(=O)N2)c2ccccc2-c2ccccc23)C(c2ccccc2)=N/C1=C/c1ccc(O)cc1
GI50 [1]: 64.2 µg/mL
TGI [1]: > 150 µg/mL
GI50 [3]: 39.2 µg/mL
TGI [3]: > 150 µg/mL
GI50 [4]: 57.4 µg/mL
TGI [4]: > 150 µg/mL
GI50 [5]: 49.6 µg/mL
TGI [5]: > 150 µg/mL
GI50 [6]: 65.9 µg/mL
TGI [6]: > 150 µg/mL
GI50 [7]: 25.6 µg/mL
TGI [7]: > 150 µg/mL
GI50 [9]: 55.1 µg/mL
TGI [9]: > 150 µg/mL
GI50 [10]: 28.6 µg/mL
TGI [10]: 57.6 µg/mL

Clc1ccccc1/C=C/c1cscn1
TGI [2]: > 100 µM
TGI [4]: > 100 µM
TGI [5]: > 100 µM
TGI [7]: > 100 µM
TGI [8]: > 100 µM
TGI [9]: > 100 µM
TGI [10]: > 100 µM

Cc1nc2ccccc2n1C(=O)c1c(F)c(F)c(F)c(F)c1F
TGI [1]: 48.9 µM
TGI [2]: 10.9 µM
TGI [3]: 26.9 µM
TGI [4]: 90.1 µM
TGI [5]: 33.9 µM
TGI [6]: 40.6 µM
TGI [7]: 62 µM
TGI [8]: 57 µM
TGI [9]: 71.6 µM
TGI [10]: 14.7 µM

N#Cc1c(Cl)c2cc([N+](=O)[O-])ccc2n2c1nc1ccccc12
TGI [1]: 4.78 µM
TGI [2]: 4.71 µM
TGI [3]: 44.4 µM
TGI [4]: 24.6 µM
TGI [5]: 2.3 µM
TGI [6]: 10.6 µM
TGI [7]: 54.5 µM
TGI [8]: > 55.6 µM
TGI [9]: 29.6 µM
TGI [10]: 42.8 µM

C=CC1(C)CCC2=C(CCC3C(C)(C(=O)OC)CCCC23C)C1=O (configuration not stated)
TGI [1]: 87.1 µM
TGI [2]: 29.3 µM
TGI [3]: 30.3 µM
TGI [5]: 42.7 µM
TGI [6]: > 100 µM
TGI [7]: 34.4 µM
TGI [8]: 28.4 µM
TGI [9]: 35.3 µM
TGI [10]: 31.5 µM

Cc1cc(O)c(C(C)(C)C)cc1Sc1cc(C(C)(C)C)c(O)cc1C
GI50 [1]: 2.07 µM
TGI [1]: 6.62 µM
GI50 [2]: 2.73 µM
TGI [2]: 5.62 µM
GI50 [3]: 1.58 µM
TGI [3]: 3.02 µM
GI50 [4]: 2.99 µM
TGI [4]: 14.5 µM
GI50 [5]: 2.96 µM
TGI [5]: 11.8 µM
GI50 [6]: 3.82 µM
TGI [6]: 15.4 µM
GI50 [7]: 3.56 µM
TGI [7]: 13.2 µM
GI50 [8]: 2.21 µM
TGI [8]: 6.29 µM
GI50 [9]: 2.23 µM
TGI [9]: 5.45 µM
GI50 [10]: 2.24 µM
TGI [10]: 5.01 µM

— PubChem BioAssay (NCI)
